This note sets out measurements from the METLIN SMRT retention time set (Domingo-Almenara et al. 2019).

The structures appear in SMILES notation.

This data set in a line: gradient 5% acetonitrile 3 min, to 50% in 2 min, to 85% in 15 min, held 3 min, 100 µL/min. As to conditions: column: Zorbax Extend-C18 2.1 x 50 mm; eluents: water / acetonitrile, 0.1% formic acid. The gist of the method: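 Mixtures of ~100 pure standards were chromatographed on a Zorbax Extend-C18 column (2.1 × 50 mm, 1.8 μm) at 100 μL/min using water and acetonitrile, each with 0.1% formic acid. Detection used a quadrupole time-of-flight mass spectrometer in positive and negative ionization mode, and data collection spanned 3 months. Retention time was obtained from adduct peaks picked computationally and each checked manually.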
As to `COCCNC(=O)Nc1cccn2c(C)nnc12`, the RP-LC retention time came out at 556 s.
Under `Cc1ccc(S(=O)(=O)N2C[C@@H](F)C[C@H]2C(=O)N2CCCCC2)c(C)c1` stands 874 s.
`O=C(Nc1cc(-c2cccs2)no1)c1ccc(F)cc1` gave an RP-LC retention time of 948 s.
Under `Cc1sc(NC(=O)c2ccc(S(=O)(=O)N(C)C)cc2)nc1-c1ccc2c(c1)N(C)C(=O)CO2` stands 938 s; under `CN(C)c1ccc(N2C=C(C(=O)N3CCCCC3)S(=O)(=O)c3ccc(F)cc32)cc1`, 959 s.
`Cc1ccc(C)c(OCC(O)Cn2c(C3CC3)nc3ccccc32)c1` (centres undefined): the RP-LC retention time stood at 731 s.
Under `COC(=O)c1ccc(NC(=O)N2CCN(c3nc4ccccc4nc3C(F)(F)F)CC2)cc1` stands 1080 s.
The same measure for `C[C@H]1CN(C(=O)CSc2ccccc2)C[C@@H]1c1nc(-c2cccnc2)no1`: 823 s.
`Cc1ccc(-c2nc(-c3cccc(-c4ccn[nH]4)c3)no2)c(C)c1`: the RP-LC retention time came out at 1150 s.
In turn, `Cc1nn(C(C)C)c(C)c1S(=O)(=O)N1CCN(C(=O)CCc2c[nH]c3ccccc23)CC1` came in with an RP-LC retention time of 829 s.
In turn, `COC(=O)c1ccc2c(=O)n(-c3ccc(C)c(C)c3)c(N3CCC(C)CC3)nc2c1` came in with an RP-LC retention time of 1440 s.
In the case of `CSc1nc2ccc3nc(NC(=O)c4cnccn4)sc3c2s1`, the RP-LC retention time is 927 s.
As to `COc1ccccc1NC(=O)CSc1nc2c(-c3ccccc3)csc2c(=O)n1C`, the RP-LC retention time stood at 960 s.
Under `CCCc1noc(-c2ccnc(-n3cnc(C(=O)NC4CCCC4)c3)c2)n1` stands 952 s; under `COc1ccc(-c2nnc(N3CCC(C(=O)NCc4cc(F)ccc4F)CC3)o2)cc1`, 824 s.
On to `CCCCNC(=O)c1ccc2c(c1)CCCN2S(C)(=O)=O`, for which the RP-LC retention time came to 774 s.
Molecule `CCOC(=O)Nc1nc2c(s1)CN(C(=O)Nc1ccc3c(c1)OCO3)CC2` gave an RP-LC retention time of 670 s.
As for `CCCCN1CCC(CCC(=O)c2cc(Cl)c(N)cc2OC)CC1`, the RP-LC retention time amounted to 726 s.
Under `Cc1cc(=O)n(CC(=O)Nc2ccc3c(c2)OCO3)c(-c2ccc(Cl)cc2)n1` stands 1040 s; under `COc1nc2ccccc2nc1N1CCCC(C(=O)Nc2cccc(Cl)c2)C1` (centres undefined), 1220 s.
The same measure for `O=C(c1cnccn1)N1CCCC1c1nc(CCOCC2CC2)no1` (centres undefined): 698 s; for `Cc1cccc(NC(=O)N2CCC3(CC2)NC(=O)c2ccccc2N3C)c1`: 616 s; for `COc1ccc(CNC(=O)Cn2c(C)cc(-c3nnc(C4CCC4)o3)c2C)cc1`: 818 s.
In turn, `CC(=O)N(C)CC(=O)N1CCN(c2cc(C)nc(Nc3ccc(C)cc3)n2)CC1` registered an RP-LC retention time of 564 s.
In turn, `Cc1ccn2cc(C(=O)NCc3ccc4c(c3)OCO4)nc2c1` came in with an RP-LC retention time of 679 s.
As to `CCOc1ccccc1NC(=O)N1CCC(n2cnc3cccnc32)CC1`, the RP-LC retention time worked out at 686 s.
Under `CCCCCCC(C)OC(=O)c1ccccc1C(=O)O` (centres undefined) stands 1130 s; under `Cc1ccn2cc(C(=O)NC3CCCCCC3)nc2c1`, 683 s.
Take `CCCc1cc(N2CCN(C(=O)c3cc(OC)cc(OC)c3)CC2)nc2nncn12`: the RP-LC retention time turned out to be 576 s.
Molecule `O=S(=O)(Cc1ccccc1)N1CCCCC1c1nc(-c2cccnc2)n[nH]1` (centres undefined) gave an RP-LC retention time of 701 s.
In turn, `CC(=O)Nc1ccc(S(=O)(=O)NCCc2cn(CC(C)C)c3ncccc23)cc1` came in with an RP-LC retention time of 726 s.
Regarding `COc1ccc(-c2nc3ccc(C)cn3c2Nc2ccc3c(c2)OCO3)cc1`, the RP-LC retention time was 684 s.
For `O=C(c1ccc(Cl)cc1)N1CCC(N(C(=O)C2CC2)C2CCOCC2)CC1`, the RP-LC retention time is 775 s.
`Cc1cccc(N2CCN(C(=O)c3[nH]c(C)c(S(=O)(=O)N4CCOCC4)c3C)CC2C)c1` (centres undefined) displayed an RP-LC retention time of 752 s.
The molecule `COc1ccc(C(=O)N2CCc3ccc(C(=O)NCc4cccs4)cc32)cc1` came in with an RP-LC retention time of 806 s.
The molecule `CCN1CCN(CCCNC(=O)Cc2c(C(=O)O)c(C)cn2C)CC1` had an RP-LC retention time of 549 s.
Under `CCn1ccc2oc(C)c(C(=O)NCc3cc(C)ccc3C)c2c1=O` stands 878 s.
As to `CN(C)c1cc(C(=O)NCc2ccncc2)nc2ccnn12`, the RP-LC retention time turned out to be 581 s.
`O=[N+]([O-])c1cccc(C2Oc3ccccc3C3CC(c4cccnc4)=NN32)c1` (centres undefined) had an RP-LC retention time of 790 s.
As for `Cc1ccc(-c2ncc(C#N)c(=O)n2CC(=O)NCc2ccccc2Br)cc1`, the RP-LC retention time is 1010 s.
The molecule `COC(=O)c1cnc2nc(C)ccc2c1Nc1ccc(OC)c(Cl)c1` yielded an RP-LC retention time of 682 s.
Turning to `O=S(=O)(Nc1ccccc1F)c1c[nH]c2ncccc12`, the RP-LC retention time was 697 s.
Take `COc1ccccc1CNC(=O)C(=O)NCc1ccsc1`: the RP-LC retention time is 796 s.
The same measure for `CCc1noc(C2(NC(=O)c3cccc(F)c3)CCCCC2)n1`: 949 s.
For the molecule `O=C(Nc1cccc(C(F)(F)F)c1)Nc1cc(Cl)ccc1C(=O)O`, the RP-LC retention time is 1080 s.
With `CS(=O)(=O)c1ccc(C(=O)N2CCN(c3ccccc3)CC2)cc1`, the RP-LC retention time is 683 s.
The same measure for `CCc1ccc(N2C(=O)C3N=NN(Cc4nc(-c5cccc(C(F)(F)F)c5)no4)C3C2=O)cc1` (centres undefined): 1130 s; for `CCOC(=O)c1cc(S(=O)(=O)N2CCCC2C(=O)N(CC)c2cccc(C)c2)cn1C` (centres undefined): 943 s; for `COc1ccc(N2CCN(c3ncccc3-c3nc(-c4ccc(Cl)cc4)no3)CC2)cc1`: 1230 s.
`COc1ccc(CCNC[C@H](O)c2ccc(O)cc2)cc1OC` displayed an RP-LC retention time of 656 s.
`CCc1ccc(-n2ncc3c(=O)n(Cc4nc(-c5ccc(Cl)cc5)no4)cnc32)cc1` displayed an RP-LC retention time of 1270 s.
Turning to `CCN1C(=O)C2(CCN(S(=O)(=O)c3c(C)nn(C)c3C)CC2)c2ccccc21`, the RP-LC retention time was 841 s.
The molecule `Fc1ccccc1-c1noc(Cc2nnc(-c3ccc(Cl)cc3)o2)n1` gave an RP-LC retention time of 1100 s.
Under `COc1ccc(-c2cn3c(CC(=O)N4CCN(c5ccccc5F)CC4)csc3n2)cc1OC` stands 780 s; under `CNC(=O)C1CCCN(c2nc3ncn(CC(=O)NC4CCCCC4)c(=O)c3s2)C1` (centres undefined), 632 s.
The molecule `COc1ccc(-n2nc(C)c3sc(N4CCCC(C(=O)NCC5CCCO5)C4)nc32)cc1` (centres undefined) displayed an RP-LC retention time of 895 s.
With `CC(C(=O)NCc1ccccc1F)n1c(=O)c(C(F)(F)F)nc2ccccc21` (centres undefined), the RP-LC retention time turned out to be 1020 s.
Molecule `CC1(C(=O)NCc2ccc(F)cc2)CN(S(C)(=O)=O)CC(=O)N1Cc1ccc(Cl)cc1` (centres undefined) showed an RP-LC retention time of 866 s.
As for `Cc1ccc(C)c(Nc2c(-c3ccc(N4CCOCC4)cc3)nc3ncccn23)c1`, the RP-LC retention time was determined as 746 s.
Consider `CC(C)C(=O)NCC(c1ccc(N(C)C)cc1)N1CCN(c2ccc(F)cc2)CC1` (centres undefined), for which the RP-LC retention time came out at 592 s.
For `CCCn1ccc2oc(C)c(C(=O)NCc3ccc(Cl)cc3)c2c1=O`, the RP-LC retention time was determined as 814 s.
Take `Cc1[nH]c(=O)[nH]c(=O)c1/C=C/C(=O)NC(CO)CC(C)C` (centres undefined): the RP-LC retention time was 592 s.
Under `C#CCOCC1CCN(S(=O)(=O)c2ccccc2)CC1` stands 866 s; under `CC1(C(=O)NCc2ccccc2)CCCN(C(=O)Nc2ccccc2Br)C1` (centres undefined), 947 s.
Regarding `Cc1ccc(Cl)cc1N1CCN(c2cc(C(=O)O)c3cc(NC(=O)C(C)C)ccc3n2)CC1`, the RP-LC retention time stood at 746 s.
The same measure for `COc1ccc(NC(=O)NC(C)C(=O)N2CCc3ccccc32)cc1OC` (centres undefined): 742 s; for `COc1cc(NC(=O)Nc2nccn(-c3ccc(C)c(Cl)c3)c2=O)cc(OC)c1`: 1060 s; for `Cc1cc2n(n1)CCC(=O)N2CCCC(=O)NCc1cccs1`: 637 s.
Under `CCc1cccc(NC(=O)c2c(O)c3cccnc3n(-c3ccccc3)c2=O)c1` stands 1430 s; under `Cc1cccn2cc(-c3ccc(NC(=O)c4ncccn4)cc3)nc12`, 680 s.
Take `COc1ccc2c(NCCCCCCNc3c4ccccc4nc4cc(OC)ccc34)c3ccccc3nc2c1`: the RP-LC retention time was 655 s.
Take `CCn1c(C(=O)NCCCN2CCCC2=O)c(N2CCCC2=O)c2cc(OC)ccc21`: the RP-LC retention time worked out at 677 s.
Under `COc1ccccc1N1CCN(C(=O)c2cc3c(=O)n(C)ccc3n2C)CC1` stands 651 s.
Under `COc1cccc(-c2noc(C3CC(=O)N(c4ccc(Cl)cc4)C3)n2)c1OC` (centres undefined) stands 963 s; under `O=C(CCC1CCN(S(=O)(=O)c2ccccc2)CC1)NC1CCCC1`, 852 s.
For the molecule `COc1cccc(NC(=O)Nc2ccc(Cl)c(N3CCCS3(=O)=O)c2)c1OC`, the RP-LC retention time stood at 780 s.
Turning to `CC1CCCN(c2ccn3c(=O)n(CC(=O)Nc4cc(F)cc(F)c4)nc3n2)C1` (centres undefined), the RP-LC retention time was 849 s.
Under `CCC(CC)C(=O)Nc1ccc(-c2nc(-c3ccc(Cl)cc3)no2)cc1` stands 639 s; under `O=C(c1cccc(Cl)c1)N1C[C@@H]2C[C@H]1C[C@@H]2NS(=O)(=O)c1cccnc1`, 709 s.
